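These data come from cells grown in 96-well plates and exposed to compound for 48 hours at five concentrations. Here, GI50 denotes the concentration required for 50% inhibition of growth. TGI: total growth inhibition.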
What was measured:
Experiment in all cases: inhibition of tumour cell growth, NCI panel, 48 h
[1] = tested on: NCI/ADR-RES ovarian
[2] = tested on: 786-0 renal
[3] = tested on: CAKI-1 renal
[4] = tested on: MCF7 breast
[5] = tested on: HL-60(TB) leukemia
[6] = tested on: HOP-62 NSCLC
[7] = tested on: UO-31 renal
[8] = tested on: TK-10 renal
[9] = tested on: ACHN renal
[10] = tested on: EKVX NSCLC

For `Cn1cc(C2=C(c3cccc(N)c3)C(=O)NC2=O)c2ccccc21`, the GI50 [1] was > 19.7 µM, the TGI [1] was > 25 µM and the GI50 [2] was 14 µM. For the same compound, the TGI [2] was > 25 µM, the GI50 [3] was 13 µM and the TGI [3] was > 25 µM. For the same compound, the GI50 [4] was 4.19 µM, the TGI [4] was > 25 µM and the GI50 [5] was 11.4 µM. For the same compound, the TGI [5] was > 25 µM, the GI50 [6] was 9.5 µM and the TGI [6] was > 25 µM. The GI50 [7] was 14.1 µM, the TGI [7] was > 25 µM and the GI50 [8] was > 25 µM. The TGI [8] was > 25 µM, the GI50 [9] was 5.85 µM and the TGI [9] was > 25 µM.
`CCCCCCc1cc2cc(-c3nc4ccccc4[nH]3)c(=Nc3ccccc3C)oc2cc1O` was tested, and the GI50 [1] was 4.24 µM, the TGI [1] was 22.7 µM and the GI50 [2] was 1.88 µM. For the same compound, the TGI [2] was 3.43 µM, the GI50 [3] was 2.36 µM and the TGI [3] was 9.74 µM. The GI50 [4] was 2.24 µM, the TGI [4] was > 23.8 µM and the GI50 [5] was 2.13 µM. It also gave a TGI [5] of 4.52 µM, a GI50 [6] of 1.95 µM and a TGI [6] of 4.57 µM. It also gave a GI50 [7] of 1.64 µM, a TGI [7] of 4.49 µM and a GI50 [8] of 2.27 µM. It also gave a TGI [8] of 4.48 µM, a GI50 [9] of 2.04 µM and a TGI [9] of 5.24 µM.
`O=c1c2ccccc2c(Br)c(Br)c2ccccc12` was tested, and the GI50 [1] was 16.5 µM, the TGI [1] was 40.6 µM and the GI50 [2] was 14.7 µM. For the same compound, the TGI [2] was 29.8 µM, the GI50 [3] was 1.78 µM and the TGI [3] was 4.39 µM. The GI50 [10] was 14.2 µM, the TGI [10] was 64.3 µM and the GI50 [4] was 5.6 µM. For the same compound, the TGI [4] was 46.1 µM, the GI50 [6] was 21 µM and the TGI [6] was 41.9 µM. It also gave a GI50 [7] of 1.9 µM, a TGI [7] of 3.44 µM and a GI50 [8] of 3.91 µM. It also gave a TGI [8] of 18 µM, a GI50 [9] of 7.46 µM and a TGI [9] of 21.9 µM.
`N#Cc1cccc(OCc2nc(N)nc(N)c2-c2ccc(Cl)c(Cl)c2)c1` was tested, and the GI50 [1] was 1.19 µM, the TGI [1] was > 100 µM and the GI50 [2] was 0.513 µM. For the same compound, the TGI [2] was > 100 µM, the GI50 [3] was 0.893 µM and the TGI [3] was > 100 µM. The GI50 [4] was 3.09 µM, the TGI [4] was > 100 µM and the GI50 [5] was 1.55 µM. For the same compound, the TGI [5] was > 100 µM, the GI50 [6] was 4.44 µM and the TGI [6] was > 100 µM. For the same compound, the GI50 [7] was 3.23 µM, the TGI [7] was > 100 µM and the GI50 [8] was 9.32 µM. For the same compound, the TGI [8] was > 100 µM, the GI50 [9] was 0.896 µM and the TGI [9] was > 100 µM.
For `Clc1cc2c(cc1Cl)Oc1cc(Cl)c(Cl)cc1O2`, the GI50 [1] was > 0.625 µM, the TGI [1] was > 0.625 µM and the GI50 [2] was > 0.625 µM. For the same compound, the TGI [2] was > 0.625 µM, the GI50 [3] was > 0.625 µM and the TGI [3] was > 0.625 µM. For the same compound, the GI50 [4] was > 0.625 µM, the TGI [4] was > 0.625 µM and the GI50 [5] was > 0.625 µM. For the same compound, the TGI [5] was > 0.625 µM, the GI50 [6] was > 0.625 µM and the TGI [6] was > 0.625 µM. The GI50 [7] was 0.209 µM, the TGI [7] was > 0.625 µM and the GI50 [8] was > 0.625 µM. For the same compound, the TGI [8] was > 0.625 µM, the GI50 [9] was > 0.625 µM and the TGI [9] was > 0.625 µM.
With `Nc1ncnc2c1ncn2Cc1ccc(C23CC4CC(CC(C4)C2)C3)c(OCc2cc(F)c(F)cc2F)c1` the GI50 [1] was 6.49 µM, the TGI [1] was > 100 µM and the GI50 [2] was 17.5 µM. The TGI [2] was > 100 µM, the GI50 [3] was 2.32 µM and the TGI [3] was 6.9 µM. The GI50 [4] was 6.37 µM, the TGI [4] was 30.2 µM and the GI50 [5] was 3.06 µM. The TGI [5] was 10.7 µM, the GI50 [6] was 6.98 µM and the TGI [6] was 18.9 µM. For the same compound, the GI50 [8] was 4.37 µM, the TGI [8] was > 100 µM and the GI50 [9] was 5.74 µM. For the same compound, the TGI [9] was > 100 µM.
With `CC(=O)CCc1ccc(OC2OC(COC(=O)c3cc(O)c(O)c(O)c3)C(O)C(O)C2OC(=O)/C=C/c2ccccc2)cc1` (stereo not drawn) the GI50 [1] was > 100 µM, the TGI [1] was > 100 µM and the GI50 [2] was 18.6 µM. For the same compound, the TGI [2] was 48.2 µM, the GI50 [3] was 29.7 µM and the TGI [3] was > 100 µM. The GI50 [10] was 40.3 µM, the TGI [10] was 72 µM and the GI50 [4] was 22.7 µM. The TGI [4] was 47.1 µM, the GI50 [6] was 17.2 µM and the TGI [6] was 33.8 µM. The GI50 [7] was 30.2 µM, the TGI [7] was > 100 µM and the GI50 [8] was 23.8 µM. It also gave a TGI [8] of 61.3 µM, a GI50 [9] of 25.6 µM and a TGI [9] of 75.4 µM.
`COc1cc2c3c(n(CCCN(CCN)CCCn4c5c(c6cc(OC)c(OC)cc6c4=O)C(=O)c4cc6c(cc4-5)OCO6)c(=O)c2cc1OC)-c1cc2c(cc1C3=O)OCO2` was tested, and the GI50 [1] was 2.22 µM, the TGI [1] was > 76.1 µM and the GI50 [2] was 0.314 µM. It also gave a TGI [2] of 1.51 µM, a GI50 [3] of 0.271 µM and a TGI [3] of 3.23 µM. For the same compound, the GI50 [10] was 11.9 µM, the TGI [10] was > 62.6 µM and the GI50 [4] was 0.376 µM. For the same compound, the TGI [4] was > 36 µM, the GI50 [6] was 0.33 µM and the TGI [6] was 1.64 µM. For the same compound, the GI50 [7] was 0.892 µM, the TGI [7] was 8.18 µM and the GI50 [8] was 3.11 µM. For the same compound, the TGI [8] was > 24.8 µM, the GI50 [9] was 0.376 µM and the TGI [9] was 3.02 µM.
`O=C1c2cccnc2C(=O)C2C3C=CC(C3)C12` (stereo not drawn) was tested, and the TGI [1] was > 100 µM, the TGI [2] was 24.2 µM and the TGI [3] was 31.9 µM. It also gave a TGI [10] of 28.8 µM, a TGI [4] of 15.4 µM and a TGI [6] of 20.4 µM. It also gave a TGI [7] of 28.1 µM, a TGI [8] of 31.9 µM and a TGI [9] of 20.4 µM.
For `Nc1nc(N)c(Cn2ccnc2)c(=O)[nH]1`, the TGI [1] was > 100 µM, the TGI [2] was > 100 µM and the TGI [3] was > 100 µM. The TGI [10] was > 100 µM, the TGI [4] was > 100 µM and the TGI [6] was > 100 µM. The TGI [7] was > 100 µM, the TGI [8] was > 100 µM and the TGI [9] was > 100 µM.
`C#CCN(Cc1nc2cc(C(F)(F)F)ccc2nc1-c1ccccc1)c1ccc(OC(F)(F)F)cc1` was tested, and the GI50 [1] was > 100 µM, the TGI [1] was > 100 µM and the GI50 [2] was > 100 µM. For the same compound, the TGI [2] was > 100 µM, the GI50 [3] was 62 µM and the TGI [3] was > 100 µM. For the same compound, the GI50 [10] was 32.6 µM, the TGI [10] was > 100 µM and the GI50 [4] was 32 µM. The TGI [4] was > 100 µM, the GI50 [6] was > 100 µM and the TGI [6] was > 100 µM. The GI50 [7] was 50.7 µM, the TGI [7] was > 100 µM and the GI50 [8] was 78.9 µM. The TGI [8] was > 100 µM, the GI50 [9] was 50.2 µM and the TGI [9] was > 100 µM.
